Legend:
rice = assay: Test B flooded paddy test; assay type: in vivo, Oryza sativa; details: Flood, 250 g ai/ha, 0 to 100 scale where 0 is no effect and 100 is complete control
How it was run: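 Compound added straight to paddy water, with pots kept flooded 3 cm above soil, on plants grown to the 2-leaf stage. Visual scoring 0-100 (100 = complete control) against untreated controls after 13 to 15 greenhouse days.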

johnsongrass = assay: Test C preemergence; assay type: in vivo, Sorghum halepense; details: for Johnsongrass plant response rating: preemergence; for Plant response rating, Johnsongrass: Preemergence, 31 g ai/ha, scale 0 to 100, 0 no effect, 100 complete control
How it was run: (§1)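 Visual ratings on a 0–100 scale (100 = complete control) were made versus untreated controls after 13–15 greenhouse days. Chemicals in a surfactant-containing non-phytotoxic solvent were applied either preemergence to seeds in loam–sand soil or postemergence to 1- to 4-leaf plants 2–18 cm tall.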

lambsquarters = assay: Test C preemergence; assay type: in vivo, Chenopodium album; details: for Lambsquarters plant response rating: preemergence; for Plant response rating, Lambsquarters: Preemergence, 31 g ai/ha, scale 0 to 100, 0 no effect, 100 complete control
How it was run: as §1

wheat, winter = assay: Test C postemergence; assay type: in vivo, Triticum aestivum
How it was run: as §1

wild oat = assay: Test C postemergence; assay type: in vivo, Avena fatua
How it was run: as §1

large (Lg) crabgrass [1] = assay: Test C preemergence; assay type: in vivo, Digitaria sanguinalis; details: for Crabgrass, Large plant response rating: preemergence; for Plant response rating, Crabgrass, Large: Preemergence, 31 g ai/ha, scale 0 to 100, 0 no effect, 100 complete control
How it was run: as §1

ragweed = assay: Test C postemergence; assay type: in vivo, Ambrosia elatior
How it was run: as §1

kochia = assay: Test C postemergence; assay type: in vivo, Kochia scoparia
How it was run: as §1

large (Lg) crabgrass [2] = assay: Test A preemergence; assay type: in vivo, Digitaria sanguinalis; details: Digitaria sanguinalis, pre-emergence, 240 h, 0 to 100 scale where 0 is no effect and 100 is complete control
How it was run: (§2)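 Injury scores run from 0, no effect, to 100, complete control, judged by eye against untreated plants roughly 10 days after treatment. Chemicals carried a surfactant in a non-phytotoxic solvent and went onto loam–sand soil preemergence or onto one- to two-leaf seedlings postemergence.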

corn = assay: Test A preemergence; assay type: in vivo, Zea mays; details: Zea mays, pre-emergence, 240 h, 0 to 100 scale where 0 is no effect and 100 is complete control
How it was run: as §2

[3] = 16 g ai/ha, scale 0 to 100 (0 no effect, 100 complete control)
[4] = 62 g ai/ha, scale 0 (no effect) to 100 (complete control)
[5] = 125 g ai/ha, scale 0 (no effect) to 100 (complete control)
[6] = Postemergence, 31 g ai/ha, scale 0 to 100 (0 no effect, 100 complete control), 13 to 15 days
[7] = Postemergence, 62 g ai/ha, scale 0 to 100 (0 no effect, 100 complete control)
[8] = 16 g ai/ha, postemergence, visual rating, scale 0 to 100 (0 no effect, 100 complete control), 13 to 15 days
[9] = 31 g ai/ha, postemergence, visual rating, scale 0 to 100 (0 no effect, 100 complete control), 13 to 15 days

## N#Cc1cccc(Oc2ncc(F)cn2)c1-n1cc(I)cn1 [Compound 86]
rice
  Plant response rating, Rice: 0
johnsongrass; [3]
  Johnsongrass plant response rating: 10
johnsongrass; [4]
  Johnsongrass plant response rating: 60
johnsongrass; [5]
  Johnsongrass plant response rating: 95
johnsongrass
  Plant response rating, Johnsongrass: 20
lambsquarters; [3]
  Lambsquarters plant response rating: 100
lambsquarters; [4]
  Lambsquarters plant response rating: 100
lambsquarters; [5]
  Lambsquarters plant response rating: 100
lambsquarters
  Plant response rating, Lambsquarters: 100
wheat, winter; 125 g ai/ha, postemergence
  Plant response rating (0 to 100), Wheat: 0
wheat, winter; [6]
  Plant response rating, Wheat: 0
wheat, winter; [7]
  Plant response rating, Wheat: 0
Wild oat; 125 g ai/ha, postemergence
  Plant response rating (0 to 100), Oat, Wild: 10
Wild oat; [6]
  Plant response rating, Oat, Wild: 0
Wild oat; [7]
  Plant response rating, Oat, Wild: 5
Large (Lg) crabgrass [1]; [3]
  Crabgrass, Large plant response rating: 85
Large (Lg) crabgrass [1]; [4]
  Crabgrass, Large plant response rating: 100
Large (Lg) crabgrass [1]; [5]
  Crabgrass, Large plant response rating: 100
Large (Lg) crabgrass [1]
  Plant response rating, Crabgrass, Large: 100
ragweed; 125 g ai/ha, postemergence
  Plant response rating (0 to 100), Ragweed: 85
ragweed; [6]
  Plant response rating, Ragweed: 50
ragweed; [7]
  Plant response rating, Ragweed: 55
kochia; [8]
  Kochia plant response rating: 50
kochia; 125 g ai/ha, postemergence
  Plant response rating (0 to 100), Kochia: 95
kochia; [6]
  Plant response rating, Kochia: 60
kochia; [7]
  Plant response rating, Kochia: 90

## N#Cc1cccc(Oc2ncc(Br)cn2)c1-n1cc(I)cn1 [Compound 88]
rice
  Plant response rating, Rice: 0
johnsongrass; [3]
  Johnsongrass plant response rating: 0
johnsongrass; [4]
  Johnsongrass plant response rating: 40
johnsongrass; [5]
  Johnsongrass plant response rating: 85
johnsongrass
  Plant response rating, Johnsongrass: 0
lambsquarters; [3]
  Lambsquarters plant response rating: 70
lambsquarters; [4]
  Lambsquarters plant response rating: 100
lambsquarters; [5]
  Lambsquarters plant response rating: 100
lambsquarters
  Plant response rating, Lambsquarters: 100
wheat, winter; 125 g ai/ha, postemergence
  Plant response rating (0 to 100), Wheat: 5
wheat, winter; [6]
  Plant response rating, Wheat: 5
wheat, winter; [7]
  Plant response rating, Wheat: 5
Wild oat; 125 g ai/ha, postemergence
  Plant response rating (0 to 100), Oat, Wild: 10
Wild oat; [6]
  Plant response rating, Oat, Wild: 5
Wild oat; [7]
  Plant response rating, Oat, Wild: 10
Large (Lg) crabgrass [1]; [3]
  Crabgrass, Large plant response rating: 45
Large (Lg) crabgrass [1]; [4]
  Crabgrass, Large plant response rating: 100
Large (Lg) crabgrass [1]; [5]
  Crabgrass, Large plant response rating: 100
Large (Lg) crabgrass [1]
  Plant response rating, Crabgrass, Large: 70
ragweed; 125 g ai/ha, postemergence
  Plant response rating (0 to 100), Ragweed: 60
ragweed; [6]
  Plant response rating, Ragweed: 55
ragweed; [7]
  Plant response rating, Ragweed: 55
kochia; [8]
  Kochia plant response rating: 90
kochia; 125 g ai/ha, postemergence
  Plant response rating (0 to 100), Kochia: 100
kochia; [6]
  Plant response rating, Kochia: 95
kochia; [7]
  Plant response rating, Kochia: 95

## Fc1cccc(Oc2ncc(Cl)cn2)c1-n1cc(Br)cn1 [Compound 178, 2-[2-(4-bromo-1H-pyrazol-1-yl)-3-fluorophenoxy]-5-chloropyrimidine]
rice; Oryza sativa, read-out: Plant response rating, Rice
  plant injury at 250 g/ha: 0%
wheat, winter; [9]
  Wheat plant response rating: 0
wheat, winter; Triticum aestivum, post-emergence, 16 g ai/ha, postemergence, 0 is no effect, 100 is complete control, read-out: Plant response rating (0 to 100), Wheat
  plant injury at 16 g/ha: 0%
wheat, winter; Triticum aestivum, post-emergence, 125 g ai/ha, postemergence, visual rating, scale 0 to 100 (0 no effect, 100 complete control), read-out: Plant response rating, Wheat
  plant injury at 125 g/ha: 0%
wheat, winter; Triticum aestivum, post-emergence, Postemergence, 62 g ai/ha, scale 0 to 100 (0 no effect, 100 complete control), read-out: Plant response rating, Wheat
  plant injury at 62 g/ha: 0%
Wild oat; [9]
  Oat, Wild plant response rating: 0
Wild oat; Avena fatua, post-emergence, 16 g ai/ha, postemergence, 0 is no effect, 100 is complete control, read-out: Plant response rating (0 to 100), Oat, Wild
  pest or weed control at 16 g/ha: 0%
Wild oat; Avena fatua, post-emergence, 125 g ai/ha, postemergence, visual rating, scale 0 to 100 (0 no effect, 100 complete control), read-out: Plant response rating, Oat, Wild
  pest or weed control at 125 g/ha: 30%
Wild oat; Avena fatua, post-emergence, Postemergence, 62 g ai/ha, scale 0 to 100 (0 no effect, 100 complete control), read-out: Plant response rating, Oat, Wild
  pest or weed control at 62 g/ha: 10%
ragweed; [9]
  Ragweed plant response rating: 55
ragweed; Ambrosia artemisiifolia, post-emergence, 16 g ai/ha, postemergence, 0 is no effect, 100 is complete control, read-out: Plant response rating (0 to 100), Ragweed
  pest or weed control at 16 g/ha: 20%
ragweed; Ambrosia artemisiifolia, post-emergence, 125 g ai/ha, postemergence, visual rating, scale 0 to 100 (0 no effect, 100 complete control), read-out: Plant response rating, Ragweed
  pest or weed control at 125 g/ha: 65%
ragweed; Ambrosia artemisiifolia, post-emergence, Postemergence, 62 g ai/ha, scale 0 to 100 (0 no effect, 100 complete control), read-out: Plant response rating, Ragweed
  pest or weed control at 62 g/ha: 30%
Large (Lg) crabgrass [2]; 125 g ai/ha, read-out: Plant response rating, Crabgrass, Large
  pest or weed control at 125 g/ha: 100%
Large (Lg) crabgrass [2]; 500 g ai/ha, read-out: Crabgrass, Large plant response rating
  pest or weed control at 500 g/ha: 100%
kochia; Bassia scoparia, post-emergence, 16 g ai/ha, postemergence, 0 is no effect, 100 is complete control, read-out: Plant response rating (0 to 100), Kochia
  pest or weed control at 16 g/ha: 60%
kochia; Bassia scoparia, post-emergence, 31 g ai/ha, postemergence, visual rating, scale 0 to 100 (0 no effect, 100 complete control), 13 to 15 days, read-out: Kochia plant response rating
  pest or weed control at 31 g/ha: 90%
kochia; Bassia scoparia, post-emergence, 125 g ai/ha, postemergence, visual rating, scale 0 to 100 (0 no effect, 100 complete control), read-out: Plant response rating, Kochia
  pest or weed control at 125 g/ha: 95%
kochia; Bassia scoparia, post-emergence, Postemergence, 62 g ai/ha, scale 0 to 100 (0 no effect, 100 complete control), read-out: Plant response rating, Kochia
  pest or weed control at 62 g/ha: 95%
corn; 125 g ai/ha
  Corn plant response rating (crop injury, 0 = no effect, 100 = complete kill) at 125 g/ha: 0%
corn; 500 g ai/ha, read-out: Corn plant response rating
  plant injury at 500 g/ha: 30%

Reference: patent US9695155B2, “Herbicidal substituted pyrimidinyloxy benzene compounds” (E. I. DU PONT DE NEMOURS AND COMPANY, priority 2013, dated 2017)
